In brackets after ≈: the same amount, converted by molar mass.
Test system: A. baumannii strain ATCC19606
Assay: Minimum inhibitory concentration (MIC) determination, microbroth dilution (CLSI)
Assay type: cell-based
Conditions: Acinetobacter baumannii; A. baumannii ATCC19606; CAMHB; read after 20 hours; >=80% growth inhibition; read-out: ATCC19606 MIC
In short: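 After 20 h at 35±2 °C, MIC taken visually and by OD 600 nm as the lowest concentration giving ≥80% growth inhibition. Bacteria (~5×10^5 CFU/ml) were tested per CLSI microbroth dilution against twofold serial compound dilutions in cation-adjusted Mueller Hinton broth.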

Compound | MIC
CN1C(=O)[C@H](CCCCN)NC(=O)[C@H](CCCN)NCc2cccnc2Sc2c(Cl)cc(N3CC4CC3CO4)cc2CNC(=O)[C@@H]1Cc1c[nH]c2ccccc12 (stereo partly drawn) [Example 187, (11S,14S,17S)-14-(4-Amino-butyl)-11-(3-amino-propyl)-25-chloro-17-(1H-indol-3-ylmethyl)-16-methyl-23-(2-oxa-5-aza-bicyclo[2.2.1]hept-5-yl)-2-thia-4,10,13,16,19-pentaaza-tricyclo[19.4.0.0*3,8*]pentacosa-1(25),3(8),4,6,21,23-hexaene-12,15,18-trione] | 2 µg/mL (≈ 2.49 µM)
CN1C(=O)[C@H](CCCCN)NC(=O)[C@H](CCCN)NCc2cccnc2Sc2c(Cl)cc(C#CCOCc3ccccc3)cc2CNC(=O)[C@@H]1Cc1c[nH]c2ccccc12 [Example 188, (11S,14S,17S)-14-(4-Amino-butyl)-11-(3-amino-propyl)-23-(3-benzyloxy-prop-1-ynyl)-25-chloro-17-(1H-indol-3-ylmethyl)-16-methyl-2-thia-4,10,13,16,19-pentaaza-tricyclo[19.4.0.0*3,8*]pentacosa-1(25),3(8),4,6,21,23-hexaene-12,15,18-trione] | 2 µg/mL (≈ 2.35 µM)
CN1C(=O)[C@H](CCCCN)NC(=O)[C@H](CCCN)NCc2ccccc2Sc2c(-c3ccccc3)ncc(Cl)c2CNC(=O)[C@@H]1Cc1c[nH]c2ccccc12 [Example 189] | 4 µg/mL (≈ 5.12 µM)
CN1C(=O)[C@H](CCCCN)NC(=O)[C@H](CCCN)NCc2ccccc2Sc2nc(N3CCOCC3)ccc2CNC(=O)[C@@H]1Cc1c[nH]c2ccccc12 [Example 192] | 64 µg/mL (≈ 84.7 µM)
CN1C(=O)[C@H](CCCCN)NC(=O)[C@H](CCCN)NCc2ccccc2Sc2ccnc(N3CCOCC3)c2CNC(=O)[C@@H]1Cc1c[nH]c2ccccc12 [Example 193] | 64 µg/mL (≈ 84.7 µM)
Cc1[nH]c2ccccc2c1C[C@H]1C(=O)NCc2cc(-c3cncc(S(C)(=O)=O)c3)cc(Cl)c2Sc2ncccc2CN[C@@H](CCCN)C(=O)N[C@@H](CCCCN)C(=O)N1C [Example 199, (11S,14S,17S)-14-(4-Amino-butyl)-11-(3-amino-propyl)-25-chloro-23-(5-methanesulfonyl-pyridin-3-yl)-16-methyl-17-(2-methyl-1H-indol-3-ylmethyl)-2-thia-4,10,13,16,19-pentaaza-tricyclo[19.4.0.0*3,8*]pentacosa-1(25),3(8),4,6,21,23-hexaene-12,15,18-trione] | 1 µg/mL (≈ 1.14 µM)

Stronger by MIC, values ahead:

MIC | Compound
0.12 µg/mL (≈ 0.153 µM) | CN1C(=O)[C@H](CCCCN)NC(=O)[C@H](CCCN)NCc2cccnc2Sc2c(Cl)ccc(-c3ccncc3)c2CNC(=O)[C@@H]1Cc1c[nH]c2ccccc12 [Example 190, (11S,14S,17S)-14-(4-Amino-butyl)-11-(3-amino-propyl)-25-chloro-17-(1H-indol-3-ylmethyl)-16-methyl-22-pyridin-4-yl-2-thia-4,10,13,16,19-pentaaza-tricyclo[19.4.0.0*3,8*]pentacosa-1(21),3,5,7,22,24-hexaene-12,15,18-trione]
0.12 µg/mL (≈ 0.153 µM) | CN1C(=O)[C@H](CCCCN)NC(=O)[C@H](CCCN)NCc2cccnc2Sc2c(Cl)ccc(-c3cccnc3)c2CNC(=O)[C@@H]1Cc1c[nH]c2ccccc12 [Example 191, (11S,14S,17S)-14-(4-Amino-butyl)-11-(3-amino-propyl)-25-chloro-17-(1H-indol-3-ylmethyl)-16-methyl-22-pyridin-3-yl-2-thia-4,10,13,16,19-pentaaza-tricyclo[19.4.0.0*3,8*]pentacosa-1(25),3(8),4,6,21,23-hexaene-12,15,18-trione]
0.12 µg/mL (≈ 0.151 µM) | Cc1[nH]c2ccccc2c1C[C@H]1C(=O)NCc2c(-c3cccnc3)ccc(Cl)c2Sc2ncccc2CN[C@@H](CCCN)C(=O)N[C@@H](CCCCN)C(=O)N1C [Example 200, (11S,14S,17S)-14-(4-Amino-butyl)-11-(3-amino-propyl)-25-chloro-16-methyl-17-(2-methyl-1H-indol-3-ylmethyl)-22-pyridin-3-yl-2-thia-4,10,13,16,19-pentaaza-tricyclo[19.4.0.0*3,8*]pentacosa-1(25),3(8),4,6,21,23-hexaene-12,15,18-trione]

Source: patent US10030047B2 (Hoffmann-La Roche Inc., priority 2015, dated 2018)
